In one experiment the target is dopamine D2 receptor (Homo sapiens, UniProt P14416). Nature of the experiment: Binding affinity to cloned human dopamine receptors (radioligand displacement), D2. The note with it: for Affinity to Dopamine Receptors (% Inhibition) D2: 1 µM test compound. On the procedure:
(§1) Experimental Example: Test for the Binding Affinity to Dopamine Receptor
(§2) Binding affinities of the compounds for dopamine receptors were determined indirectly by their ability to displace radiolabeled ligand from cloned human dopamine receptors. Compounds were incubated in receptor suspension to compete with the radiolabeled ligand. The receptor-bound radiolabeled ligand was separated by filtering through Wallac glass fiber filtermat (GF/C) using Inotech cell harvester of 96-well format. The radioactivity bound to filter was counted by Micro-P counter (Wallac).
(§3) The aliquots of cloned human dopamine receptors stored at −70° C. were suspended in assay buffer and the content of receptor in each aliquot was determined by Bio-Rad DC protein assay kit to give an optimal protein (receptor) concentration obtained by preliminary receptor binding assay. Receptor suspension adjusted to optimal concentration was aliquoted in proper volume for assay and stored at −70° C. Binding assays of every compound were performed in duplicate and each different buffer solution was used for optimal assay with each subtype of dopamine receptors. Receptor binding assays were carried out in 96-well plates. Receptor suspension of 100 was incubated at 27° C. for 30-60 min in a final volume of 0.25 ml reaction mixture containing 50 of hot-ligand and 10 of test compound.
(§4) After incubation, the reaction mixture was washed with ice-cold 50 mM Tris-acetate buffer by rapid filtration using a Inotech cell harvester (Inotech, Switzerland) through Whatman GF/C glass fiber filter presoaked in the assay buffer. The filter was covered with MeltiLex, sealed in a sample bag followed by drying in the microwave, and counted by MicroBeta Plus (Wallac, Finland) at a counting efficiency of 30-40%.
Background: Loss of bound radioactivity is the signal in a displacement assay; it reports binding, not function.

The target of a further experiment is T1, dopamine D4 receptor (Homo sapiens, UniProt P21917).
T1 sequence (P21917 1-419): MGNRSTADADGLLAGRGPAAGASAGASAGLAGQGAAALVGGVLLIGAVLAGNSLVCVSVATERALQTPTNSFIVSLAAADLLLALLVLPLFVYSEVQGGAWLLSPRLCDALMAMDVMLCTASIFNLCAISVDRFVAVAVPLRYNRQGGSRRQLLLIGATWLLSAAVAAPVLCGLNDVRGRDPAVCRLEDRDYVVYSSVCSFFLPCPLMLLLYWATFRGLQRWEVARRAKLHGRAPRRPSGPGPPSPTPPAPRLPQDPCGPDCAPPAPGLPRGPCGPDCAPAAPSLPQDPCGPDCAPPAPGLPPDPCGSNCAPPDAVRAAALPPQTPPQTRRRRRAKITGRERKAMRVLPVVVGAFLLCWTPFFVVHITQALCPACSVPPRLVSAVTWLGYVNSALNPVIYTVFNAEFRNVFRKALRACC
Nature of the experiment: Binding affinity to cloned human dopamine receptors (radioligand displacement), D4. The note with it: for Affinity to Dopamine Receptors (% Inhibition) D4: 1 µM test compound. How it is done:
as §1, §2, §3, §4

A further experiment addresses dopamine D3 receptor (Homo sapiens, UniProt P35462). Nature of the experiment: Binding affinity to cloned human dopamine receptors (radioligand displacement), D3. The note with it: for Affinity to Dopamine Receptors (% Inhibition) D3: 1 µM test compound. How it is done: as §1, §2, §3, §4
The target of another experiment is dopamine D1 receptor (Homo sapiens, UniProt P21728). Nature of the experiment: Binding affinity to cloned human dopamine receptors (radioligand displacement), D1. The note with it: for Affinity to Dopamine Receptors (% Inhibition) D1: 1 µM test compound. On the procedure: as §1, §2, §3, §4
Chain of dopamine D1 receptor (P21728 whole entry): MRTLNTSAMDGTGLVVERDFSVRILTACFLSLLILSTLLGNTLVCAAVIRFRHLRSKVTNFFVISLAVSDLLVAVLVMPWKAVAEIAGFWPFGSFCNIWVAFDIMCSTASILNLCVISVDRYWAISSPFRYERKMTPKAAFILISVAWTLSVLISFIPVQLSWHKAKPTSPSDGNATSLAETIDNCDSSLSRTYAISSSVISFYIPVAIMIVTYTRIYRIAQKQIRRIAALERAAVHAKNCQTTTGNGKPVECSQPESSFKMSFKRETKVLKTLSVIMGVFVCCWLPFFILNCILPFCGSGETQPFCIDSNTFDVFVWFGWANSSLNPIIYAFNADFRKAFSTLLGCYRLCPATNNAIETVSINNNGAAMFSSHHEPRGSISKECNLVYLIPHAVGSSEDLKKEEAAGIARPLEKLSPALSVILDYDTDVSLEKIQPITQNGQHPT

Chain of dopamine D3 receptor (P35462 whole entry): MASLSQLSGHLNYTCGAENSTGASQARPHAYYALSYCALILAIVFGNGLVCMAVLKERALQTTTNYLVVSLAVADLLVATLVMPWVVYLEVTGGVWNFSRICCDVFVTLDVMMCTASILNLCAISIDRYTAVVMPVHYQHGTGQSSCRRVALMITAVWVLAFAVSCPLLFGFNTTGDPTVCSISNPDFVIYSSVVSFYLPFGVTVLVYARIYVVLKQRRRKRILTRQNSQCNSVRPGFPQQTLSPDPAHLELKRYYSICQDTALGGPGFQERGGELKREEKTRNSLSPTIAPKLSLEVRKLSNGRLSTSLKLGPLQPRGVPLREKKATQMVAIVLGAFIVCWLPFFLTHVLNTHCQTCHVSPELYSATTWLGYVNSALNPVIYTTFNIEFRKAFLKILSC
Chain of dopamine D2 receptor (P14416 whole entry): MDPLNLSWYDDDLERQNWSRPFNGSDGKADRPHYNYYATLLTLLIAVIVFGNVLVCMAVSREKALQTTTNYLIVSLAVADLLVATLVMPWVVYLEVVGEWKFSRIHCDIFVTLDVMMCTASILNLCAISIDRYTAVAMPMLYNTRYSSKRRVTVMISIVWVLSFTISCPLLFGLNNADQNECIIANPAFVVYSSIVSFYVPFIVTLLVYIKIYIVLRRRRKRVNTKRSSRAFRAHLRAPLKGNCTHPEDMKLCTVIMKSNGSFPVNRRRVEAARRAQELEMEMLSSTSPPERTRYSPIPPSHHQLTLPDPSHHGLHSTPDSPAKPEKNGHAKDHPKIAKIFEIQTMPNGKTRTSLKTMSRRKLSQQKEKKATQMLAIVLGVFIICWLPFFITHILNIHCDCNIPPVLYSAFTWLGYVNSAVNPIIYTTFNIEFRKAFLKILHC

For the compound `CCOc1ccccc1N1CCN(CCCc2cc(-c3ccc(F)cc3)no2)CC1` [Compound No. 20], at dopamine D2 receptor, the “Affinity to Dopamine Receptors (% Inhibition) D2” value (from here on “Affinity … (% Inhibition) D2”) was 47.9%. Further, the “Affinity to Dopamine Receptors (% Inhibition) D4” value (from here on “Affinity … (% Inhibition) D4”) on dopamine D4 receptor came out at 86.2%. Also, at dopamine D3 receptor, the “Affinity to Dopamine Receptors (% Inhibition) D3” value (from here on “Affinity … (% Inhibition) D3”) is recorded as 89.4%.

In the case of `C(=C\c1cc(CCCCN2CCN(C(c3ccccc3)c3ccccc3)CC2)on1)/c1ccccc1` [Compound No. 29], at dopamine D1 receptor, the “Affinity to Dopamine Receptors (% Inhibition) D1” value (“Affinity … (% Inhibition) D1” below) came to 32.6%. Also, at dopamine D2 receptor, the “Affinity … (% Inhibition) D2” value amounted to 0.0%. The “Affinity … (% Inhibition) D4” value on dopamine D4 receptor turned out to be 31.6%. At dopamine D3 receptor, the “Affinity … (% Inhibition) D3” value amounted to 102.4%.

As for `COc1ccc(-c2cc(CCCN3CCN(c4ccccc4)CC3)on2)c(OC)c1` [Compound No. 32], on dopamine D1 receptor, the IC50 was determined as 0.11 µM and the “Affinity … (% Inhibition) D1” value is 70%. Also, at dopamine D2 receptor, the IC50 amounted to 9.98 µM and the “Affinity … (% Inhibition) D2” value turned out to be 10.6%. Besides, at dopamine D4 receptor, the IC50 was 0.117 µM and the “Affinity … (% Inhibition) D4” value is on record as 74.9%. Moreover, on dopamine D3 receptor, the IC50 was 0.038 µM and the “Affinity … (% Inhibition) D3” value was 100.1%.

For the compound `c1ccc(N2CCN(CCCCc3cc(-c4cccs4)no3)CC2)cc1` [Compound No. 33], on dopamine D1 receptor, the concentration for half-maximal inhibition (IC50) was determined as 0.31 µM and the “Affinity … (% Inhibition) D1” value turned out to be 52.9%. Further, on dopamine D2 receptor, the IC50 came out at 18.8 µM and the “Affinity … (% Inhibition) D2” value is on record as 6.7%. Moreover, at dopamine D4 receptor, the IC50 turned out to be 0.18 µM and the “Affinity … (% Inhibition) D4” value amounted to 62.4%. Further, at dopamine D3 receptor, the IC50 is 0.035 µM and the “Affinity … (% Inhibition) D3” value is reported as 104.4%.

For `C(=C\c1cc(CCCCN2CCN(c3ccccc3)CC2)on1)/c1ccccc1` [Compound No. 36], the “Affinity … (% Inhibition) D1” value at dopamine D1 receptor came to 75.2%. The “Affinity … (% Inhibition) D2” value at dopamine D2 receptor amounted to 22.2%. Moreover, the “Affinity … (% Inhibition) D4” value at dopamine D4 receptor is listed as 69%. Further, at dopamine D3 receptor, the “Affinity … (% Inhibition) D3” value turned out to be 107.9%.

Turning to `COc1ccccc1N1CCN(CCCCc2cc(-c3ccc(F)cc3)no2)CC1` [Compound No. 37], the “Affinity … (% Inhibition) D1” value at dopamine D1 receptor was found to be 52.2%. In addition, the “Affinity … (% Inhibition) D2” value on dopamine D2 receptor came out at 57.3%. In addition, on dopamine D4 receptor, the “Affinity … (% Inhibition) D4” value was determined as 91.3%. At dopamine D3 receptor, the “Affinity … (% Inhibition) D3” value amounted to 112.5%.

As to `COc1ccc(-c2cc(CCCCN3CCN(c4ccccc4OC)CC3)on2)cc1OC` [Compound No. 39], at dopamine D1 receptor, the IC50 came to 2.88 µM and the “Affinity … (% Inhibition) D1” value was 23.9%. For the same compound, on dopamine D2 receptor, the 50% inhibitory concentration (IC50) is 1.9 µM and the “Affinity … (% Inhibition) D2” value was 23%. Besides, at dopamine D4 receptor, the IC50 was 0.395 µM and the “Affinity … (% Inhibition) D4” value came out at 80.1%. Further, at dopamine D3 receptor, the IC50 came to 0.012 µM and the “Affinity … (% Inhibition) D3” value amounted to 105.1%.

For the compound `Fc1ccccc1N1CCN(CCCCc2cc(/C=C/c3ccccc3)no2)CC1` [Compound No. 46], the “Affinity … (% Inhibition) D1” value at dopamine D1 receptor worked out at 75.8%. On dopamine D2 receptor, the 50% inhibitory concentration (IC50) came to 2.66 µM and the “Affinity … (% Inhibition) D2” value was 15.6%. At dopamine D4 receptor, the IC50 turned out to be 0.089 µM and the “Affinity … (% Inhibition) D4” value was determined as 45.1%.

As to `CCOc1ccccc1N1CCN(CCCCc2cc(-c3cccs3)no2)CC1` [Compound No. 53], on dopamine D2 receptor, the IC50 amounted to 0.88 µM and the “Affinity … (% Inhibition) D2” value was 54.1%. Also, on dopamine D4 receptor, the IC50 came out at 0.019 µM and the “Affinity … (% Inhibition) D4” value is 93.4%.

For `CCOc1ccccc1N1CCN(CCCCc2cc(-c3ccccc3)no2)CC1` [Compound No. 54], at dopamine D2 receptor, the IC50 amounted to 1.55 µM and the “Affinity … (% Inhibition) D2” value is reported as 29.9%. For the same compound, at dopamine D4 receptor, the IC50 was 0.052 µM and the “Affinity … (% Inhibition) D4” value turned out to be 77.6%. Also, on dopamine D3 receptor, the IC50 is 0.021 µM and the “Affinity … (% Inhibition) D3” value came to 101.8%.

A word on the IC50: it is the concentration needed to halve the response being measured.

For the origin of these results see patent US6723724B2, “Isoxazolylalkylpiperazine derivatives having selective biological activity at dopamine D3 or D4 receptor, and preparation thereof” (priority 2000, dated 2004).
